Results as given in patent publication US12637425B2, “Compounds and formulations for treating ophthalmic diseases” (Visus Therapeutics, Inc., priority 2020, dated 2026).

Assays:
[1] = target: T1, Recombinant cryAB(R120G) protein (Homo sapiens, UniProt P02511, R120G); assay: Kinetic turbidity aggregation assay of recombinant cryAB(R120G); assay type: biochemical; details: for inhibition at 25 µM: read-out: % Inhibition of Protein Aggregation, 25 μM cmpd; for inhibition at 100 µM: read-out: % Inhibition of Protein Aggregation, 100 μM cmpd; for IC50: inhibition of cryAB(R120G) protein aggregation; for inhibition at 400 µM: 400 μM compound, read-out: % Inhibition of Protein Aggregation, 400 μM cmpd
T1 sequence (P02511 1-175 R120G): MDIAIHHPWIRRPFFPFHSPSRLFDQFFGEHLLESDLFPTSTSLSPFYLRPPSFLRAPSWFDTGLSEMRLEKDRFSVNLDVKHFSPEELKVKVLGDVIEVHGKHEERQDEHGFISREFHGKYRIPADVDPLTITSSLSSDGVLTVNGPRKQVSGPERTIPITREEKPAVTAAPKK
Procedure, shortened: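 Recombinant human cryAB R120G at 15 μM final in 50 mM Tris, 100 mM NaCl, 5 mM DTT, 0.01% Triton X-100, 0.05% PEG-8000 with 4% DMSO. Compounds added from 2-fold serial DMSO dilutions, run in quadruplicate; aggregation followed kinetically by turbidity.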

[2] = target: T2, Alpha-Crystallin Domain of alpha B crystallin containing the E117C mutation (Homo sapiens, UniProt P02511, E117C); assay: CryAB binding assay (MicroScale Thermophoresis, direct binding); details: 100 nM Cy5-labeled protein, Tris buffer pH 8
T2 construct: the Alpha-Crystallin Domain of alpha B crystallin containing the E117C mutation
T2 sequence (P02511 56-164 E117C limits assumed): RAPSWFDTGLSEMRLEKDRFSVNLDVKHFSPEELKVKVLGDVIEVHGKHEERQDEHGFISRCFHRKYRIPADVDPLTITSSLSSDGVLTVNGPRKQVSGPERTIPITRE
Experimental: Example A-2: CryAB Binding Assay
Affinities were determined by MicroScale Thermophoresis using a direct binding assay. Briefly, the Alpha-Crystallin Domain of alpha B crystallin containing the E117C mutation was alkylated with a Cy5 dye and monitored for binding at 100 nM protein in Tris buffer pH 8, containing 0.1% PEG-8000, 0.05% Tween-20, and 5% DMSO. Binding assays were performed by titrating ligand against a mixture of the dye-labeled protein and monitoring fluorescence changes indicating binding. Based on observed fluorescence measurements for each compound titration a KD was calculated using the Law of Mass Action equation.

[3] = 25 μM compound, 15 μM cryAB(R120G), 42° C., absorbance at 550 nm
[4] = 100 μM compound, 15 μM cryAB(R120G), 42° C., absorbance at 550 nm
[5] = 15 μM cryAB(R120G), 42° C., absorbance at 550 nm

| inhibition at 25 µM [1, 3] | inhibition at 100 µM [1, 4] | IC50 [1] | Kd [2] | inhibition at 400 µM [1, 5] | % Inhibition of Protein Aggregation, 25 μM cmpd [1, 3] | % Inhibition of Protein Aggregation, 100 μM cmpd [1, 4] | Structure (SMILES) |
| --- | --- | --- | --- | --- | --- | --- | --- |
| 99% | 99.6% | ≤ 10 µM | ≤ 10 µM | – | – | – | CCn1nc([C@@H](CNS(=O)(=O)c2ccc3cc[nH]c3c2)N2CCCC2)c2ccccc21 [Compound 91, (R)-N-(2-(1-ethyl-1H-indazol-3-yl)-2-(pyrrolidin-1-yl)ethyl)-1H-indole-6-sulfonamide] |
| – | – | – | – | – | 7% | 98.5% | Cn1cc(C(CNS(=O)(=O)c2cccc3[nH]ccc23)N2CCCC2)c2ccccc21 (stereo not drawn) [Compound 28, N-(2-(1-methyl-1H-indol-3-yl)-2-(pyrrolidin-1-yl)ethyl)-1H-indole-4-sulfonamide] |
| 58% | 83.7% | – | – | 99.1% | – | – | CN(C)C(CNS(=O)(=O)c1ccc2cc[nH]c2c1)c1ccc2[nH]ncc2c1 (stereo not drawn) [Compound 3, N-(2-(dimethylamino)-2-(1H-indazol-5-yl)ethyl)-1H-indole-6-sulfonamide] |
| 47% | 99.2% | 10 to 50 µM | – | – | – | – | Cn1cc(C(CNS(=O)(=O)c2ccc3cc[nH]c3c2)Nc2ccncc2)c2ccccc21 (stereo not drawn) [Compound 49, N-(2-(1-methyl-1H-indol-3-yl)-2-(pyridin-4-ylamino)ethyl)-1H-indole-6-sulfonamide] |
| 99.6% | 99.9% | ≤ 10 µM | – | – | – | – | C[C@@H]1CCCN1[C@H](CNS(=O)(=O)c1ccc2cc[nH]c2c1)c1cn(C)c2ccccc12 [Compound 53, N-((S)-2-(1-methyl-1H-indol-3-yl)-2-((R)-2-methylpyrrolidin-1-yl)ethyl)-1H-indole-6-sulfonamide] |
| -28% | 82% | – | – | – | – | – | Cn1cc(C(CNS(=O)(=O)c2ccc3cc[nH]c3c2)N2CCOCC2)c2ccccc21 (stereo not drawn) [Compound 30, N-(2-(1-methyl-1H-indol-3-yl)-2-morpholinoethyl)-1H-indole-6-sulfonamide] |

The remaining lines, values behind:

| Structure (SMILES) | inhibition at 25 µM [1, 3] | inhibition at 100 µM [1, 4] | IC50 [1] | Kd [2] | inhibition at 400 µM [1, 5] | % Inhibition of Protein Aggregation, 25 μM cmpd [1, 3] | % Inhibition of Protein Aggregation, 100 μM cmpd [1, 4] |
| --- | --- | --- | --- | --- | --- | --- | --- |
| Cn1cc([C@@H](CNS(=O)(=O)c2ccc3cc[nH]c3c2)N2CCCC2)c2ccccc21 [Compound 24, (S)-N-(2-(1-methyl-1H-indol-3-yl)-2-(pyrrolidin-1-yl)ethyl)-1H-indole-6-sulfonamide] | 99.7% | 99.9% | ≤ 10 µM | ≤ 10 µM | – | – | – |
| Cn1cc(C(CN(CC#N)S(=O)(=O)c2ccc3cc[nH]c3c2)N2CCCC2)c2ccccc21 (stereo not drawn) [Compound 93, N-(cyanomethyl)-N-(2-(1-methyl-1H-indol-3-yl)-2-(pyrrolidin-1-yl)ethyl)-1H-indole-6-sulfonamide] | 99.7% | 94.3% | ≤ 10 µM | ≤ 10 µM | – | – | – |
| CN(C)C(CNS(=O)(=O)c1ccc2cc[nH]c2c1)c1cn(C)c2ccccc12 (stereo not drawn) [Compound 10, N-(2-(dimethylamino)-2-(1-methyl-1H-indol-3-yl)ethyl)-1H-indole-6-sulfonamide] | 69.8% | 98.7% | 10 to 50 µM | 10 to 50 µM | 99.7% | – | – |
| Cn1cc([C@@H](CNS(=O)(=O)c2ccc3cc[nH]c3c2)NCc2cncs2)c2ccccc21 [Compound 84, (S)-N-(2-(1-methyl-1H-indol-3-yl)-2-((thiazol-5-ylmethyl)amino)ethyl)-1H-indole-6-sulfonamide] | 25% | 71.8% | – | – | – | – | – |
| Cn1cc([C@H](CNS(=O)(=O)c2ccc3cc[nH]c3c2)N2CCCC2)c2ccccc21 [Compound 25, (R)-N-(2-(1-methyl-1H-indol-3-yl)-2-(pyrrolidin-1-yl)ethyl)-1H-indole-6-sulfonamide] | 39% | 97.1% | 10 to 50 µM | 10 to 50 µM | 97.2% | – | – |
| C[C@H]1CCCN1C(CNS(=O)(=O)c1ccc2cc[nH]c2c1)c1cn(C)c2ccccc12 (stereo partly drawn) [Compound 48] | 23% | 76.9% | – | – | – | – | – |
